# Molecular target: T1, thrombin (Homo sapiens, UniProt P00734)
# T1 construct: gene F2
# Assay: thrombin inhibition dose-response, apparent Ki
# Format: biochemical
smiles,measurement,value
CNC(=O)[C@@H]1CN(C(=O)[C@H](Cc2ccccc2CNC(=N)N)NC(=O)N(C)C2CCOc3ccccc32)C[C@H]1c1ccc(OC)cc1 (stereo partly shown) [compound 5],Ki,1 nM

# Source: publication PMC7382296, “Discovery of potent thrombin inhibitors from a protease-focused DNA-encoded chemical library” (Proceedings of the National Academy of Sciences of the …, 2020)
